According to PMC11497205, “Gold(I) Complexes Based on Nonsteroidal Anti-Inflammatory Derivatives as Multi-Target Drugs against Colon Cancer” (Inorganic Chemistry, 2024):

What was measured:
[1] = Distribution coefficient log D7.4; format: physicochemical; conditions: pH 7.4
Description: Table 1 Distribution Coefficients and IC50 (μM) ^b Values of the Complexes on Caco-2/TC7 Cancer Cells Compared with Auranofin ^a | column: log D7.4

Caco-2/TC7 cells = assay: MTT antiproliferative assay on Caco-2/TC7 colon cancer cells; format: cell-based, human; conditions: 72 h incubation, undifferentiated cells, mean ± SE
Description: The antiproliferative effect of the reference drug auranofin was included as positive control. […] However, the coordination of the gold-phosphane unit to these ligands derived from NSAIDs leads to much more cytotoxic complexes, as can be observed in Table 1 with IC50 values in the range of that found in auranofin or even lower values for complexes [Au(L1)(CyJohnPhos)] (1a), [Au(L4)(CyJohnPhos)] […] This fact has already been observed previously in related gold complexes with an alkyne ligand derived from naproxen molecule,[43] which makes naproxen an excellent pharmacophore when coordinated to gold(I).
The human Caco-2 cell line (TC7 clone) was kindly provided by Dr. Edith Brot-Laroche (Université Pierre et Marie Curie-Paris 6, UMR S 872, Les Cordeliers, France), Human epithelial fibroblast cells (NHDF-Ad, Lonza, Porriño, Spain) were kindly provided by Dr. Gracia Mendoza (Aragon Health Research Institute, IIS Aragón, Spain). Caco-2 cells (passages 36–48) and fibroblasts (passages 10–20) were maintained in a humidified atmosphere of 5% CO2 at 37 °C in Dulbecco’s Modified Eagles medium (DMEM) (Gibco Invitrogen. Paisley. UK) supplemented with 20% fetal bovine serum, 1% nonessential amino acids, 1% penicillin (1000 U/mL), 1% streptomycin ([…]) and 1% amphotericin (250 U/mL). The Caco-2 cells were subcultured in 25 cm^2 plastic flasks at a density of 3 × 10^5 cells/cm^2, while the fibroblasts were subcultured on 75 cm^2 plastic flasks at a density of 1 × 10^4 cells/cm^2. The culture medium was replaced every 2 days.
The gold complexes were diluted in dimethyl sulfoxide (DMSO) as a 10 mM stock solution and then diluted in a cell culture medium at the desired concentrations. For the cytotoxicity screening assays, Caco-2 cells were seeded in 96-well plates at a density of 4 × 10^3 cells/well. […] The antiproliferative effect was measured using an MTT assay, as previously described by Marmol et al.[93] The absorbance at 540/620 nm was measured using a SPECTROstar Nano (BMG Labtech. Ortenberg. Germany). […]

COX-1 = biological target: T1, COX-1 (Homo sapiens, UniProt P23219); assay: Intracellular COX-1 activity, kit on Caco-2/TC7 cell lysates; format: cell-based; conditions: Caco-2/TC7 cells, 24 h incubation with 20 μM of free ligands, mean ± SEM
T1 construct: a cyclooxygenase activity assay kit starting from Caco-2/TC7 cell lysates was used; endogenous in cells; host or cells: Caco-2/TC7 (human colon carcinoma)
Description: (§1) Previous studies have shown that modifications in the structure of the naproxen molecule have led to effective inhibition of COX-2, with a high degree of selectivity compared to the COX-1 isoform.[63],[64] Thus, we have tested the inhibitory activity of the best active compounds [Au(L3)(JohnPhos)] […] For this purpose, a cyclooxygenase activity assay kit starting from Caco-2/TC7 cell lysates was used, aiming to develop a new class of inhibitors that present a balanced COX-1/COX-2 inhibition to control the severe side effects resulting from nonselective COX inhibition. Inhibition of COX enzymes is expressed as the percentage of inhibition relative to control COX-1 or COX-2 activity. […] Complex [Au(L4)(JohnPhos)] […] This fact underscores the importance of the coordination of the metal center to the NSAID derivative, since the presence of the gold center is essential for achieving selectivity toward the COX-2 isoform, similar to what is observed in other gold compounds for different biomolecules.[65],[66]
(§2) The interaction of metal complexes with the enzyme cyclooxygenase was analyzed using a cyclooxygenase (COX) Activity Assay Kit (fluorometric) (AB204699 Abcam Inc. Massachusetts, USA). The procedural guidelines of the supplied kit were followed. The reaction commenced with the introduction of AA.

COX-2 = biological target: T2, COX-2 (Homo sapiens, UniProt P35354); assay: Intracellular COX-2 activity, kit on Caco-2/TC7 cell lysates; format: cell-based; conditions: Caco-2/TC7 cells, 24 h incubation with 20 μM of free ligands, mean ± SEM
T2 construct: a cyclooxygenase activity assay kit starting from Caco-2/TC7 cell lysates was used; endogenous in cells; host or cells: Caco-2/TC7 (human colon carcinoma)
T2 sequence (P35354 18-604): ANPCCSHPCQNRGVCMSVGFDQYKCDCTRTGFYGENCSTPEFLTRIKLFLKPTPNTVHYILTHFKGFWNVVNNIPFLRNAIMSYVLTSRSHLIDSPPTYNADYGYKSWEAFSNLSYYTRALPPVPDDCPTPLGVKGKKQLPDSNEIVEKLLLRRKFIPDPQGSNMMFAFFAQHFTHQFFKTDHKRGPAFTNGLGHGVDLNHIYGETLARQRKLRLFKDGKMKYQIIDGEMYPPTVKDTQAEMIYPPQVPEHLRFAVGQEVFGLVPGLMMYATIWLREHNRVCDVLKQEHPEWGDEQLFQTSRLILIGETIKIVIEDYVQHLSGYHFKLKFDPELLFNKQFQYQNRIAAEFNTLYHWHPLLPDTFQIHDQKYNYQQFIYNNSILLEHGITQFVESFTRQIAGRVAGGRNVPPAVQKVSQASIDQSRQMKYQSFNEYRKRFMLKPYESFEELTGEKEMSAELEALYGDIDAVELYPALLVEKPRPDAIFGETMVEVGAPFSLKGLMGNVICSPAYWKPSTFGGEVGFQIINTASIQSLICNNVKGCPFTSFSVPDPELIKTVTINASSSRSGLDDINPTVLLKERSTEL
Description: as §1, §2

T1 sequence (P23219 24-599): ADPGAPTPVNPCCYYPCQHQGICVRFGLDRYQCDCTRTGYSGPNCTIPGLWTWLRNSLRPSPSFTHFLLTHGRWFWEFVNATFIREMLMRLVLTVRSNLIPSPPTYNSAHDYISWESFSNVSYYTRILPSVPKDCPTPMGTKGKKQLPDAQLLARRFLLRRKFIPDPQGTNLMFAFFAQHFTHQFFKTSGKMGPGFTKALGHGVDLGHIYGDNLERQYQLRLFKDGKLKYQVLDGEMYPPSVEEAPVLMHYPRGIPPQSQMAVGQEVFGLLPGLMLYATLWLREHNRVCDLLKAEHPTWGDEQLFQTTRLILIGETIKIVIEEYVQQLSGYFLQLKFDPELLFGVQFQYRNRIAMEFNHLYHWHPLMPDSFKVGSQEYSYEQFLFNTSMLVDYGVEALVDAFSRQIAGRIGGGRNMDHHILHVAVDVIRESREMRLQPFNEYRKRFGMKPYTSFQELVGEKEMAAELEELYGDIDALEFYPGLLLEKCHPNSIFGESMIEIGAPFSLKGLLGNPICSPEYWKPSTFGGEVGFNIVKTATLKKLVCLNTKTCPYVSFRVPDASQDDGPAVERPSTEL

Structure (SMILES) | IC50 (Caco-2/TC7 cells) | Percent inhibition of COX-1 (COX-1) | Percent inhibition of COX-2 (COX-2) | log D7.4 [1]
CC[PH](CC)(CC)[Au][S][C@@H]1O[C@H](COC(C)=O)[C@@H](OC(C)=O)[C@H](OC(C)=O)[C@H]1OC(C)=O [Auranofin, reference compound] | 1.8 ± 0.1 µM |  |  | –2.53
COC(=O)[C@H](CCSC)NC(=O)c1ccccc1Nc1cccc(C)c1C [L1, Methyl (2-((2,3-Dimethylphenyl)amino)benzoyl)methioninate] |  | 15.2 ± 5.7% | 63.1 ± 8.9% | 
COC(=O)[C@H](CCSC)NC(=O)C(C)c1ccc(CC(C)C)cc1 (stereo partly drawn) [L2, Methyl (2-(4-Isobutylphenyl)propanoyl)methioninate] |  | 15.9 ± 7.3% | 55.8 ± 8.1% | 
COC(=O)C(CCSC)NC(=O)Cc1c(C)n(C(=O)c2ccc(Cl)cc2)c2ccc(OC)cc12 (stereo not drawn) [L3] |  | 22.9 ± 10.7% | 53.6 ± 14.3% | 

Continued, in another order:

IC50 (Caco-2/TC7 cells) | Percent inhibition of COX-1 (COX-1) | Percent inhibition of COX-2 (COX-2) | Structure (SMILES) | log D7.4 [1]
 | 36.9 ± 7.6% | 44.7 ± 13.4% | COC(=O)[C@H](CCSC)NC(=O)[C@@H](C)c1ccc2cc(OC)ccc2c1 [L4, Methyl ((S)-2-(6-Methoxynaphthalen-2-yl)propanoyl)methioninate] | 
1.24 ± 0.67 µM |  |  | CC#N.[Au+].[F][Sb-]([F])([F])([F])([F])[F].c1ccc(-c2ccccc2P(C2CCCCC2)C2CCCCC2)cc1 [[Au(MeCN)(CyJohnPhos)]SbF6, reference compound] | 
0.9 ± 0.76 µM |  |  | CC#N.CC(C)(C)P(c1ccccc1-c1ccccc1)C(C)(C)C.[Au+].[F][Sb-]([F])([F])([F])([F])[F] [[Au(MeCN)(JohnPhos)]SbF6, reference compound] | 
